Measurements reported in PubChem BioAssay (NCI).
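These data come from cells grown in 96-well plates and exposed to compound for 48 hours at five concentrations. Abbreviation: GI50, concentration required for 50% inhibition of growth. The concentration for full growth arrest is given as TGI.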

Experiments:
Assay in all cases: inhibition of tumour cell growth, NCI panel, 48 h
SR leukemia = test system: SR leukemia
MOLT-4 leukemia = test system: MOLT-4 leukemia
IGROV1 ovarian = test system: IGROV1 ovarian
EKVX NSCLC = test system: EKVX NSCLC
LOX IMVI melanoma = test system: LOX IMVI melanoma
A498 renal = test system: A498 renal
M14 melanoma = test system: M14 melanoma
HCC-2998 colon = test system: HCC-2998 colon
HOP-92 NSCLC = test system: HOP-92 NSCLC
CAKI-1 renal = test system: CAKI-1 renal
CCRF-CEM leukemia = test system: CCRF-CEM leukemia
MCF7 breast = test system: MCF7 breast
HL-60(TB) leukemia = test system: HL-60(TB) leukemia
UACC-257 melanoma = test system: UACC-257 melanoma
SK-MEL-28 melanoma = test system: SK-MEL-28 melanoma
NCI-H23 lung = test system: NCI-H23 lung
MDA-MB-435 = test system: MDA-MB-435
SF-295 CNS = test system: SF-295 CNS
K-562 leukemia = test system: K-562 leukemia
SK-MEL-5 melanoma = test system: SK-MEL-5 melanoma
DU-145 prostate = test system: DU-145 prostate
HS 578T breast = test system: HS 578T breast
KM12 colon = test system: KM12 colon
RXF 393 renal = test system: RXF 393 renal
MALME-3M melanoma = test system: MALME-3M melanoma
BT-549 breast = test system: BT-549 breast
NCI/ADR-RES ovarian = test system: NCI/ADR-RES ovarian
NCI-H226 lung = test system: NCI-H226 lung
TK-10 renal = test system: TK-10 renal
COLO 205 colon = test system: COLO 205 colon
NCI-H460 lung = test system: NCI-H460 lung
OVCAR-4 ovarian = test system: OVCAR-4 ovarian
U251 CNS = test system: U251 CNS
NCI-H522 lung = test system: NCI-H522 lung
SK-OV-3 ovarian = test system: SK-OV-3 ovarian
A549 NSCLC = test system: A549 NSCLC
SF-268 CNS = test system: SF-268 CNS
MDA-MB-231 breast = test system: MDA-MB-231 breast
PC-3 prostate = test system: PC-3 prostate
HCT-15 colon = test system: HCT-15 colon
HOP-62 NSCLC = test system: HOP-62 NSCLC
OVCAR-8 ovarian = test system: OVCAR-8 ovarian
SW-620 colon = test system: SW-620 colon
SNB-19 CNS = test system: SNB-19 CNS
UO-31 renal = test system: UO-31 renal
T-47D breast = test system: T-47D breast
786-0 renal = test system: 786-0 renal
HT29 colon = test system: HT29 colon
UACC-62 melanoma = test system: UACC-62 melanoma
SN12C renal = test system: SN12C renal
SNB-75 CNS = test system: SNB-75 CNS
ACHN renal = test system: ACHN renal
SK-MEL-2 melanoma = test system: SK-MEL-2 melanoma
OVCAR-5 ovarian = test system: OVCAR-5 ovarian
SF-539 CNS = test system: SF-539 CNS
OVCAR-3 ovarian = test system: OVCAR-3 ovarian
HCT-116 colon = test system: HCT-116 colon

SMILES: COc1ccc(-c2cc(-c3ccccc3)nc(SCCCC(=O)NO)n2)cc1OC
- GI50 (SR leukemia): 339 nM
- TGI (SR leukemia): 20400 nM
- GI50 (MOLT-4 leukemia): 832 nM
- TGI (MOLT-4 leukemia): 11400 nM
- GI50 (IGROV1 ovarian): 1640 nM
- TGI (IGROV1 ovarian): 5050 nM
- GI50 (EKVX NSCLC): 1180 nM
- TGI (EKVX NSCLC): 8600 nM
- GI50 (LOX IMVI melanoma): 1070 nM
- TGI (LOX IMVI melanoma): 2440 nM
- GI50 (A498 renal): 345 nM
- TGI (A498 renal): 1720 nM
- GI50 (M14 melanoma): 1020 nM
- TGI (M14 melanoma): 2820 nM
- GI50 (HCC-2998 colon): 1440 nM
- TGI (HCC-2998 colon): 3590 nM
- GI50 (HOP-92 NSCLC): 1140 nM
- TGI (HOP-92 NSCLC): 3990 nM
- GI50 (CAKI-1 renal): 452 nM
- TGI (CAKI-1 renal): 2830 nM
- GI50 (CCRF-CEM leukemia): 398 nM
- TGI (CCRF-CEM leukemia): 11100 nM
- GI50 (MCF7 breast): 2300 nM
- TGI (MCF7 breast): 9630 nM
- GI50 (HL-60(TB) leukemia): 3240 nM
- TGI (HL-60(TB) leukemia): 11700 nM
- GI50 (UACC-257 melanoma): 1430 nM
- TGI (UACC-257 melanoma): 7940 nM
- GI50 (SK-MEL-28 melanoma): 1230 nM
- TGI (SK-MEL-28 melanoma): 3660 nM
- GI50 (NCI-H23 lung): 1570 nM
- TGI (NCI-H23 lung): 4800 nM
- GI50 (MDA-MB-435): 1740 nM
- TGI (MDA-MB-435): 6280 nM
- GI50 (SF-295 CNS): 887 nM
- TGI (SF-295 CNS): 2510 nM
- GI50 (K-562 leukemia): 812 nM
- TGI (K-562 leukemia): > 100000 nM
- GI50 (SK-MEL-5 melanoma): 631 nM
- TGI (SK-MEL-5 melanoma): 2090 nM
- GI50 (DU-145 prostate): 1410 nM
- TGI (DU-145 prostate): 6850 nM
- GI50 (HS 578T breast): 1410 nM
- TGI (HS 578T breast): 9440 nM
- GI50 (KM12 colon): 2830 nM
- TGI (KM12 colon): 11000 nM
- GI50 (RXF 393 renal): 1010 nM
- TGI (RXF 393 renal): 2780 nM
- GI50 (MALME-3M melanoma): 761 nM
- TGI (MALME-3M melanoma): 5710 nM
- GI50 (BT-549 breast): 3320 nM
- TGI (BT-549 breast): 12400 nM
- GI50 (NCI/ADR-RES ovarian): 793 nM
- TGI (NCI/ADR-RES ovarian): 4350 nM
- GI50 (NCI-H226 lung): 1690 nM
- TGI (NCI-H226 lung): 5540 nM
- GI50 (TK-10 renal): 409 nM
- TGI (TK-10 renal): 8870 nM
- GI50 (COLO 205 colon): 2100 nM
- TGI (COLO 205 colon): 5950 nM
- GI50 (NCI-H460 lung): 621 nM
- TGI (NCI-H460 lung): 9810 nM
- GI50 (OVCAR-4 ovarian): 1680 nM
- TGI (OVCAR-4 ovarian): 7760 nM
- GI50 (U251 CNS): 1510 nM
- TGI (U251 CNS): 7690 nM
- GI50 (NCI-H522 lung): 1320 nM
- TGI (NCI-H522 lung): 5360 nM
- GI50 (SK-OV-3 ovarian): 1690 nM
- TGI (SK-OV-3 ovarian): 5050 nM
- GI50 (A549 NSCLC): 2060 nM
- TGI (A549 NSCLC): 7050 nM
- GI50 (SF-268 CNS): 2150 nM
- TGI (SF-268 CNS): 5680 nM
- GI50 (MDA-MB-231 breast): 1560 nM
- TGI (MDA-MB-231 breast): 8270 nM
- GI50 (PC-3 prostate): 1390 nM
- TGI (PC-3 prostate): 5620 nM
- GI50 (HCT-15 colon): 406 nM
- TGI (HCT-15 colon): 2620 nM
- GI50 (HOP-62 NSCLC): 626 nM
- TGI (HOP-62 NSCLC): 3380 nM
- GI50 (OVCAR-8 ovarian): 490 nM
- TGI (OVCAR-8 ovarian): 11900 nM
- GI50 (SW-620 colon): 539 nM
- TGI (SW-620 colon): 11300 nM
- GI50 (SNB-19 CNS): 2290 nM
- TGI (SNB-19 CNS): 10900 nM
- GI50 (UO-31 renal): 338 nM
- TGI (UO-31 renal): 1480 nM
- GI50 (T-47D breast): 824 nM
- TGI (T-47D breast): 9390 nM
- GI50 (786-0 renal): 1280 nM
- TGI (786-0 renal): 5020 nM
- GI50 (HT29 colon): 2080 nM
- TGI (HT29 colon): 7060 nM
- GI50 (UACC-62 melanoma): 1060 nM
- TGI (UACC-62 melanoma): 3110 nM
- GI50 (SN12C renal): 1540 nM
- TGI (SN12C renal): 6150 nM
- GI50 (SNB-75 CNS): 1090 nM
- TGI (SNB-75 CNS): 4510 nM
- GI50 (ACHN renal): 410 nM
- TGI (ACHN renal): 1810 nM
- GI50 (SK-MEL-2 melanoma): 1760 nM
- TGI (SK-MEL-2 melanoma): 7390 nM
- GI50 (OVCAR-5 ovarian): 1160 nM
- TGI (OVCAR-5 ovarian): 5430 nM
- GI50 (SF-539 CNS): 1350 nM
- TGI (SF-539 CNS): 3380 nM
- GI50 (OVCAR-3 ovarian): 1320 nM
- TGI (OVCAR-3 ovarian): 5360 nM
- GI50 (HCT-116 colon): 701 nM
- TGI (HCT-116 colon): 10000 nM
